What was measured:
[1] = Residual amotosalen after second illumination (two-wavelength treatment); assay type: physicochemical; details: 15 μM amotosalen, ~3 J/cm^2 each
Experimental: Additionally, any two or more wavelengths of narrow bandwidth light are evaluated in combination, such as for example, photochemical treatment of a biological fluid using amotosalen and ultraviolet light of a first peak wavelength and ultraviolet light of a second peak wavelength, sequentially or concurrently. More specifically, in one example pathogen inactivation of E. coli (Gram negative) and S. epidermidis (Gram positive) bacteria was evaluated using amotosalen and the device with LEDs of wavelengths described in Example 8. […] The spiked plasma units were divided into control (no amotosalen+UV light) and treatment (with amotosalen) conditions, with amotosalen used at 15 μM concentration. The units were aliquoted into six-well plates (5 mL/well) for illumination. Pre-illumination samples were taken and control bacterial titers determined using standard colony forming unit assay. […] Data for pre-illumination titers, post-first illumination titer, post-second illumination titer, and post-treatment (after second illumination) residual amotosalen (S-59) are shown in the following Tables 40-41.

feline calicivirus (FCV) = test: Photochemical inactivation of FCV in platelets (35% plasma/65% PAS) with amotosalen and 340 nm UVA, plaque assay; assay type: cell-based
[2] = S-59 photoconversion and photoproducts in platelets in 65% PAS III/35% plasma, 150 μM S-59, HPLC; details: for % Residual S-59: 3x (~10.8 J/cm^2)
Experimental: Platelets collected in PAS/Plasma (65% PAS III/35% Plasma) were pooled and split into three 285 mL units for the study. Amotosalen (S-59) was added to a concentration of 150 μM, and the units were illuminated one time (˜3.6 J/cm^2 total dose), two times (˜7.2 J/cm^2 total dose), or three times (˜10.8 J/cm^2 total dose) with the narrow band 340 nm LEDs or 365 nm LEDs using the device of Example 1, or with the INT-100 device. Efficiency of S-59 photoconversion, as well as photoproducts formation, was assessed post-UVA illumination by HPLC as in previous Examples.
HPLC analysis of post-illumination samples was used to determine area counts and relative levels for photoproducts generated from the various treatment conditions.

[3] = Residual amotosalen in whole-blood derived plasma, 50 μM, ~6.4 J/cm^2, HPLC; assay type: physicochemical
From the text: This pool and split format was repeated four times to generate four replicates.

Molecule `Cc1oc2c(C)c3oc(=O)cc(C)c3cc2c1COCCN` [S-59, 3-(2-aminoethoxymethyl)-2,5,9-trimethylfuro[3,2-g]chromen-7-one] has a S-59 ([1]; E. coli plasma, UV 1 265 nm then UV 2 325 nm) of 4.76 µM, a S-59 ([1]; E. coli plasma, UV 1 265 nm then UV 2 340 nm) of 3.89 µM and a S-59 ([1]; E. coli plasma, UV 1 265 nm then UV 2 365 nm) of 8.07 µM. The S-59 ([1]; E. coli plasma, UV 1 280 nm then UV 2 325 nm) was 4.44 µM, the S-59 ([1]; E. coli plasma, UV 1 280 nm then UV 2 340 nm) was 3.62 µM and the S-59 ([1]; E. coli plasma, UV 1 280 nm then UV 2 365 nm) was 7.96 µM. The S-59 ([1]; E. coli plasma, UV 1 325 nm then UV 2 265 nm) was 4.88 µM, the S-59 ([1]; E. coli plasma, UV 1 325 nm then UV 2 280 nm) was 4.66 µM and the S-59 ([1]; E. coli plasma, UV 1 340 nm then UV 2 265 nm) was 4.43 µM. It also gave a S-59 ([1]; E. coli plasma, UV 1 340 nm then UV 2 280 nm) of 4.46 µM, a S-59 ([1]; E. coli plasma, UV 1 365 nm then UV 2 265 nm) of 8.13 µM and a S-59 ([1]; E. coli plasma, UV 1 365 nm then UV 2 280 nm) of 8.00 µM. The S-59 ([1]; S. epidermidis plasma, Light 1 265 nm then Light 2 325 nm) was 4.82 µM, the S-59 ([1]; S. epidermidis plasma, Light 1 265 nm then Light 2 340 nm) was 3.93 µM and the S-59 ([1]; S. epidermidis plasma, Light 1 265 nm then Light 2 365 nm) was 8.17 µM. The S-59 ([1]; S. epidermidis plasma, Light 1 280 nm then Light 2 325 nm) was 4.50 µM, the S-59 ([1]; S. epidermidis plasma, Light 1 280 nm then Light 2 340 nm) was 3.77 µM and the S-59 ([1]; S. epidermidis plasma, Light 1 280 nm then Light 2 365 nm) was 8.01 µM. For the same molecule, the S-59 ([1]; S. epidermidis plasma, Light 1 325 nm then Light 2 265 nm) was 4.92 µM, the S-59 ([1]; S. epidermidis plasma, Light 1 325 nm then Light 2 280 nm) was 4.63 µM and the S-59 ([1]; S. epidermidis plasma, Light 1 340 nm then Light 2 265 nm) was 4.47 µM. For the same molecule, the S-59 ([1]; S. epidermidis plasma, Light 1 340 nm then Light 2 280 nm) was 4.46 µM, the S-59 ([1]; S. epidermidis plasma, Light 1 365 nm then Light 2 265 nm) was 8.39 µM and the S-59 ([1]; S. epidermidis plasma, Light 1 365 nm then Light 2 280 nm) was 8.07 µM. For the same molecule, the “Log inactivation” value (feline calicivirus (FCV); 15 μM, 4 hr incubation, 340 nm ~3 J/cm^2) was 2.7 log PFU/mL, the “Log inactivation” value (feline calicivirus (FCV); 15 μM, 8 hr incubation, 340 nm ~3 J/cm^2) was 4.2 log PFU/mL and the Log inactivation (feline calicivirus (FCV); 15 μM, 8 hr, 340 nm ~3 J/cm^2 Top Only) was 4.1 log PFU/mL. The Log inactivation (feline calicivirus (FCV); 15 μM, 8 hr, 340 nm ~3 J/cm^2 Top/Bottom) was 3.9 log PFU/mL, the “Log inactivation” value (feline calicivirus (FCV); 15 μM, 24 hr incubation, 340 nm ~3 J/cm^2) was >5.6 log PFU/mL and the Log inactivation (feline calicivirus (FCV); 15 μM, 24 hr, 340 nm ~3 J/cm^2 Top Only) was >6.3 log PFU/mL. The Log inactivation (feline calicivirus (FCV); 15 μM, 24 hr, 340 nm ~3 J/cm^2 Top/Bottom) was >6.3 log PFU/mL, the “Log inactivation” value (feline calicivirus (FCV); 30 μM, 4 hr incubation, 340 nm ~3 J/cm^2) was 4.0 log PFU/mL and the “Log inactivation” value (feline calicivirus (FCV); 30 μM, 8 hr incubation, 340 nm ~3 J/cm^2) was >5.6 log PFU/mL. For the same molecule, the Log inactivation (feline calicivirus (FCV); 30 μM, 8 hr, 340 nm ~3 J/cm^2 Top Only) was >6.3 log PFU/mL, the Log inactivation (feline calicivirus (FCV); 30 μM, 8 hr, 340 nm ~3 J/cm^2 Top/Bottom) was 6.3 log PFU/mL and the “Log inactivation” value (feline calicivirus (FCV); 30 μM, 24 hr incubation, 340 nm ~3 J/cm^2) was >5.6 log PFU/mL. The Log inactivation (feline calicivirus (FCV); 30 μM, 24 hr, 340 nm ~3 J/cm^2 Top Only) was >6.3 log PFU/mL, the Log inactivation (feline calicivirus (FCV); 30 μM, 24 hr, 340 nm ~3 J/cm^2 Top/Bottom) was >6.3 log PFU/mL and the “Log inactivation” value (feline calicivirus (FCV); 90 μM, 4 hr incubation, 340 nm ~3 J/cm^2) was >5.6 log PFU/mL. For the same molecule, the “Log inactivation” value (feline calicivirus (FCV); 90 μM, 8 hr incubation, 340 nm ~3 J/cm^2) was >5.6 log PFU/mL, the “Log inactivation” value (feline calicivirus (FCV); 90 μM, 24 hr incubation, 340 nm ~3 J/cm^2) was >5.6 log PFU/mL and the “Log inactivation” value (feline calicivirus (FCV); 150 μM, 0 hr incubation, 340 nm, more than twice ~3 J/cm^2) was 2.5 log PFU/mL. The Log inactivation (feline calicivirus (FCV); 150 μM, 0 hr, 340 nm Top Only (1-sided)) was 4.6 log PFU/mL, the Log inactivation (feline calicivirus (FCV); 150 μM, 0 hr, 340 nm Top/Bottom (2-sided)) was 3.5 log PFU/mL and the S-59 concentration post-illumination ([2]; 340 nm LED, ~3.6 J/cm^2) was 9 µM. The S-59 concentration post-illumination ([2]; 340 nm LED, ~7.2 J/cm^2) was 2 µM, the S-59 concentration post-illumination ([2]; 340 nm LED, ~10.8 J/cm^2, <LOQ) was 0.98 µM and the HPLC area counts ([2]; 340 nm, 0 J/cm^2) was 1826. The “% Residual S-59” value ([2]; 340 nm) was 0.5%, the HPLC area counts ([2]; 340 nm, 3.6 J/cm^2) was 106 and the HPLC area counts ([2]; 340 nm, 7.2 J/cm^2) was 24. It also gave an HPLC area counts ([2]; 340 nm, 10.8 J/cm^2) of 11, a S-59 concentration post-illumination ([2]; 365 nm LED, ~3.6 J/cm^2) of 42 µM and a S-59 concentration post-illumination ([2]; 365 nm LED, ~7.2 J/cm^2) of 15 µM. For the same molecule, the S-59 concentration post-illumination ([2]; 365 nm LED, ~10.8 J/cm^2) was 7 µM, the HPLC area counts ([2]; 365 nm, 0 J/cm^2) was 1753 and the “% Residual S-59” value ([2]; 365 nm) was 4.9%. The HPLC area counts ([2]; 365 nm, 3.6 J/cm^2) was 514, the HPLC area counts ([2]; 365 nm, 7.2 J/cm^2) was 183 and the HPLC area counts ([2]; 365 nm, 10.8 J/cm^2) was 84. The HPLC area counts ([2]; INT 100, 0 J/cm^2) was 1753, the “% Residual S-59” value ([2]; INT 100) was 3.1% and the HPLC area counts ([2]; INT 100, 3.6 J/cm^2) was 396. For the same molecule, the HPLC area counts ([2]; INT 100, 7.2 J/cm^2) was 129, the HPLC area counts ([2]; INT 100, 10.8 J/cm^2) was 56 and the S-59 concentration post-illumination ([2]; INT-100, ~3.6 J/cm^2) was 32 µM. It also gave a S-59 concentration post-illumination ([2]; INT-100, ~7.2 J/cm^2) of 11 µM, a S-59 concentration post-illumination ([2]; INT-100, ~10.8 J/cm^2) of 5 µM and a residual amotosalen concentration ([3]; 340 nm device) of 4.65 µM. It also gave a residual amotosalen concentration ([3]; INT-100 device) of 17.06 µM.

Reference: patent US12214092B2, “Systems and methods for treating biological fluids” (Cerus Corporation, priority 2017, dated 2025)
